Assay results from US20250236611A1, “PYRAZOLE COMPOUNDS AND USES THEREOF” (ALCON INC., priority 2021, published 2025).

Assays:
Type in all cases: biochemical
Conditions in all cases: 10 nM JAK enzyme, 800 nM Abl peptide, room temperature 75 min
JAK1 = JAK1 (Homo sapiens, UniProt P23458); experiment: JAK assay (KINASE-GLO luminescent kinase assay), JAK1
Outline: (§1)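 The 2× mix gave 10 nM kinase, 800 nM Abl peptide and 2 µM DTT, and ATP was added as a 4× stock (2 µM), in HEPES pH 7.5 buffer. Compounds ran as an 11-point series, 100 µM–10 pM final in 2.5% DMSO, for 75 min at RT. Remaining ATP was read by luminescence against DMSO control, and 4-parameter IC50s were converted to Ki by Cheng-Prusoff.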

JAK2 = JAK2 (Homo sapiens, UniProt O60674); experiment: JAK assay (KINASE-GLO luminescent kinase assay), JAK2
Outline: as §1

JAK3 = molecular target: T1, JAK3 (Homo sapiens, UniProt P52333); experiment: JAK assay (KINASE-GLO luminescent kinase assay), JAK3
T1 sequence (P52333 1-1124): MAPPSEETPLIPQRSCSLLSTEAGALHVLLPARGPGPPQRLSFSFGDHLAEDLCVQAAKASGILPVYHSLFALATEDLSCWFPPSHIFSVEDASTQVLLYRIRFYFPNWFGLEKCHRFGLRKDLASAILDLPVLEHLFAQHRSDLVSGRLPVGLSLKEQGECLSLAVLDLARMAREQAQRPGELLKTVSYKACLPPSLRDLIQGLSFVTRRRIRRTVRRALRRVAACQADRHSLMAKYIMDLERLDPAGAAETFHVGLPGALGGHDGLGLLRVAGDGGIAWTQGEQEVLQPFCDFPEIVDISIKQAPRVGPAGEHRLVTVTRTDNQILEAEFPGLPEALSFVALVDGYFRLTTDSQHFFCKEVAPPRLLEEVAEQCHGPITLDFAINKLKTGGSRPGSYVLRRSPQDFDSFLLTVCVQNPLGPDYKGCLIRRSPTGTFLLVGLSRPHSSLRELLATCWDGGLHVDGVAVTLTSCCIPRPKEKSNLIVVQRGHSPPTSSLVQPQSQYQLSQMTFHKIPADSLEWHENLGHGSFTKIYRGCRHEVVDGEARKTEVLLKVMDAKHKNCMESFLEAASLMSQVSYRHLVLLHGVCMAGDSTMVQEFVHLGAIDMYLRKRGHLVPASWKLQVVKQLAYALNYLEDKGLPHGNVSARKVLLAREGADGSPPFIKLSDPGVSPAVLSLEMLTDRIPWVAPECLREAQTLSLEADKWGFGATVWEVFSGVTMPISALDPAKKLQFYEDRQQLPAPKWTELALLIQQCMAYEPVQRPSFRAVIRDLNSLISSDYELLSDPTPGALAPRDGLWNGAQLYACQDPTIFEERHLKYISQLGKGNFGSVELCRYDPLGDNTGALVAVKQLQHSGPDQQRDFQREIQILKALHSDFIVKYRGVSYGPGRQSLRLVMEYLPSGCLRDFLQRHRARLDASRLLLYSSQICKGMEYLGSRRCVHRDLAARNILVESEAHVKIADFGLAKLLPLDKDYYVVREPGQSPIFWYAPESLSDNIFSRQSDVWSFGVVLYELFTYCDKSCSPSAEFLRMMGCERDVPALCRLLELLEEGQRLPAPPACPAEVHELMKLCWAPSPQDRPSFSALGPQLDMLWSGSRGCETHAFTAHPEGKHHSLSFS
Outline: as §1

TYK2 = TYK2 (Homo sapiens, UniProt P29597); experiment: JAK assay (KINASE-GLO luminescent kinase assay), TYK2
Sequence of TYK2 (P29597 whole entry): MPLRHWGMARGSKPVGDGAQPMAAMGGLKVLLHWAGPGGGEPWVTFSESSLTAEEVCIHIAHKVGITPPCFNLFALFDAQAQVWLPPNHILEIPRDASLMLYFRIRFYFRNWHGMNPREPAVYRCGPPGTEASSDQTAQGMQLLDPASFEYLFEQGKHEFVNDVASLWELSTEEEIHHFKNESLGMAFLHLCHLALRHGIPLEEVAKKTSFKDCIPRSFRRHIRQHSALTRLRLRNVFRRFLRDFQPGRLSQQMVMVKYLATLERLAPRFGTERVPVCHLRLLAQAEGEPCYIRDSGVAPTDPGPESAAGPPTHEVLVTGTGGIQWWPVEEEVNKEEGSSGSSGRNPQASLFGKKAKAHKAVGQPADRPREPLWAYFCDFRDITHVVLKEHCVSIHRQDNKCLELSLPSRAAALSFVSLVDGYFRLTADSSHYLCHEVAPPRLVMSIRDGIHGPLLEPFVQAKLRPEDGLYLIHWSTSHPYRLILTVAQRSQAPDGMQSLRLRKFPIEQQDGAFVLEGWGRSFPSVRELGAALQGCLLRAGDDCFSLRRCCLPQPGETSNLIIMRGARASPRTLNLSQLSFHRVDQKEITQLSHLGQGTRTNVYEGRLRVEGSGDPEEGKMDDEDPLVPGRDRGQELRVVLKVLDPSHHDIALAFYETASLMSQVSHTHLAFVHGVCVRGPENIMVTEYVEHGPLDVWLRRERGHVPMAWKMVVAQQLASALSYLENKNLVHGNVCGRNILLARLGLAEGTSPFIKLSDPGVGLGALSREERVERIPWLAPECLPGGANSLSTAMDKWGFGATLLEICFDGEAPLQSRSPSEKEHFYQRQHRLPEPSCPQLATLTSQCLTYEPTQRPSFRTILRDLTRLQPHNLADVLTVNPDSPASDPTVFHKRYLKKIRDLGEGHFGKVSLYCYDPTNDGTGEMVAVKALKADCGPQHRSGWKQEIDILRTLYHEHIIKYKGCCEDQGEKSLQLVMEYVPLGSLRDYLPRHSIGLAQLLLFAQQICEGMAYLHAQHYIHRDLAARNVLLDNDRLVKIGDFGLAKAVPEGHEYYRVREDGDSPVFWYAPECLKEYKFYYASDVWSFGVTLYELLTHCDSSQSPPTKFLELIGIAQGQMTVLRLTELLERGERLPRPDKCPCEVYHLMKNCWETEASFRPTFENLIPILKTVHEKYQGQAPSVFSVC

Sequence of JAK2 (O60674 whole entry): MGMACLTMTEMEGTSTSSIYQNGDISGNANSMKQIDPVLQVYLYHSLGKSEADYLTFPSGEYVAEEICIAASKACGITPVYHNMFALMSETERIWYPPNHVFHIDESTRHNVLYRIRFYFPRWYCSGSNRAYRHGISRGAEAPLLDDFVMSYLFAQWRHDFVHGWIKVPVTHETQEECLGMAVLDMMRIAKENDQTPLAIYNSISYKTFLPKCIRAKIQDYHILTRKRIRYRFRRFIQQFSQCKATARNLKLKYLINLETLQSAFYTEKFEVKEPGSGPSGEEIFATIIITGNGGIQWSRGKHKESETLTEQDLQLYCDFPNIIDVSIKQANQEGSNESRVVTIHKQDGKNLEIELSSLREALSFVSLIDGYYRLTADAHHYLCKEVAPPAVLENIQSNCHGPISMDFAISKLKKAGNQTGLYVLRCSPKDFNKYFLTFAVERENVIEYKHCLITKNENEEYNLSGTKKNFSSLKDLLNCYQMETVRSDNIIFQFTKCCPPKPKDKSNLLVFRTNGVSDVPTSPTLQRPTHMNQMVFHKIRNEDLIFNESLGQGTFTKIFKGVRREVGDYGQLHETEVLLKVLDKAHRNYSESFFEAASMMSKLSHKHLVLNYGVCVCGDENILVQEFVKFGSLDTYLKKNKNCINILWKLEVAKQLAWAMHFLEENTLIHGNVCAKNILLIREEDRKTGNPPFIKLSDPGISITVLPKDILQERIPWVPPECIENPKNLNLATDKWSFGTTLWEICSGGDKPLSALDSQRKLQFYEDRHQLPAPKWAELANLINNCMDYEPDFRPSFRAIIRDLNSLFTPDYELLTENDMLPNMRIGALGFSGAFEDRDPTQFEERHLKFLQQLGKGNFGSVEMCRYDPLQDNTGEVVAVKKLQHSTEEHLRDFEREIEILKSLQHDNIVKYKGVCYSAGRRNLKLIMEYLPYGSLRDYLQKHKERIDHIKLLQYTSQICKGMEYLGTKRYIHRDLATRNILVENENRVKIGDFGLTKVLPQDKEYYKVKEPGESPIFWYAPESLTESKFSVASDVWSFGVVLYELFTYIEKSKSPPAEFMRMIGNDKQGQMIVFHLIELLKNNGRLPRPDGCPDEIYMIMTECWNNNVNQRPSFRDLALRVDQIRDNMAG
Sequence of JAK1 (P23458 whole entry): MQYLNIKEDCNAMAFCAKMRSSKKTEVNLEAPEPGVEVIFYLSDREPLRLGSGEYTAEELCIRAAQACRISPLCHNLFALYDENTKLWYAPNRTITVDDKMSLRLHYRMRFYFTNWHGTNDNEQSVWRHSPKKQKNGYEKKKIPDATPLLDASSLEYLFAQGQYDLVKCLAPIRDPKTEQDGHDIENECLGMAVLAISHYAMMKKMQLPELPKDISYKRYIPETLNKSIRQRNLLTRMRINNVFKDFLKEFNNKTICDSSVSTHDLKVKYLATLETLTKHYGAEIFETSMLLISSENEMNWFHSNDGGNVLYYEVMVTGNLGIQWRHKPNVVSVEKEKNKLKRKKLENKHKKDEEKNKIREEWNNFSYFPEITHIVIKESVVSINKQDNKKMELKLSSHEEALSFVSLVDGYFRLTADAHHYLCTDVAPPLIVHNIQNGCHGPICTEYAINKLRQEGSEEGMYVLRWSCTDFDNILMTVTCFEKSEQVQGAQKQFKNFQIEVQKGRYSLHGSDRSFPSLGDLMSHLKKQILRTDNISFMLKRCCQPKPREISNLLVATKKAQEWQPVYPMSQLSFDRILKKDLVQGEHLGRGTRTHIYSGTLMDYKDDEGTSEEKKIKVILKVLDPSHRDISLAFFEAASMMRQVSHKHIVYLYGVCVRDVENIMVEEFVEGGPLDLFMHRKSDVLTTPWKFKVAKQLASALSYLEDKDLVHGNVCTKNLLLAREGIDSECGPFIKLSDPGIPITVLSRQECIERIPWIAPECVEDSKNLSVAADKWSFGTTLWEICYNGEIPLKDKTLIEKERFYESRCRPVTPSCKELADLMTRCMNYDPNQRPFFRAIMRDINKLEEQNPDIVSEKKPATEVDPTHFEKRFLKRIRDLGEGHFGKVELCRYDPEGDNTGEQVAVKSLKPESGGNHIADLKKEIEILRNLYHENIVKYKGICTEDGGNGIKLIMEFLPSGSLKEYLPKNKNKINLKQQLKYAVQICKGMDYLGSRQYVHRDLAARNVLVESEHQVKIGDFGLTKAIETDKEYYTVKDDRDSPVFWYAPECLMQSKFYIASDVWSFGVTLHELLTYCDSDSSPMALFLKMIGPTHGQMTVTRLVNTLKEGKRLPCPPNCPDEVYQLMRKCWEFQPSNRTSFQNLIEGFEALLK

Structure (SMILES)	IC50 (JAK1) [nM]	IC50 (JAK2) [nM]	IC50 (JAK3) [nM]	IC50 (TYK2) [nM]
COc1cnc(Nc2cc(COC(=O)c3ccccc3)ns2)nc1-c1cnn(CC2(CF)CC2)c1 [COC1═C(N═C(NC2═CC(═NS2)COC]	< 100	< 10	< 100	< 100
COc1cnc(Nc2ccc(C3(O)COC3)cc2)nc1-c1cnn(CC2(CF)CC2)c1 [COC1═C(N═C(NC2═CC═C(C═C2)C3]	< 1000	< 10	< 100	< 100
COc1cnc(Nc2ccc(N3CCN(C)CC3)cc2)nc1-c1cnn(CC2(Cl)CC2)c1 [COC1═C(N═C(NC2═CC═C]	< 100	< 10	< 10	< 100
COc1ccc(Nc2ncc(C)c(-c3cnn(CC4(CF)CC4)c3)n2)cn1 [COC1═CC═C(NC2═NC(═C]	< 1000	< 10	< 100	< 100
COc1cc(Nc2ncc(C)c(-c3cnn(CC4(CF)CC4)c3)n2)sn1 [COC1═NSC(═C1)NC2═NC(═C]	< 100	< 10	< 100	< 10
COC(=O)c1cc(Nc2ncc(C)c(-c3cnn(CCC#N)c3)n2)ccc1N1CCOCC1 [COC(═O)C1═C(C═CC(═C1)NC2═NC(═C]	< 10	< 10	< 10	< 10
COC(=O)c1cc(Nc2ncc(C)c(-c3cnn(CCC#N)c3)n2)ccc1N1CCOCC1 [COC(═O)C1═CC(═CC═C1)NC2═NC(═C]	< 100	< 10	< 10	< 100
COC(=O)c1cccc(Nc2ncc(Cl)c(-c3cnn(CCC#N)c3)n2)c1 [COC(═O)C1═CC═CC(═C1)NC2═NC]	< 100	< 10	< 10	< 100
COC(=O)c1ccc(Nc2ncc(Cl)c(-c3cnn(CC4(C#N)CC4)c3)n2)cn1 [COC(═O)C1═NC═C(NC2═NC(═C]	< 1000	< 10	< 100	< 100
COCc1cc(Nc2ncc(C)c(-c3cnn(CC4(CF)CC4)c3)n2)sn1 [COCC1═NSC(═C1)NC2═NC(═C]	< 1000	< 100	< 1000	< 1000
COCCOc1ccc(Nc2ncc(C)c(-c3cnn(CC4(CF)CC4)c3)n2)cc1 [COCCOC1═CC═C(NC2═NC(═C]	< 100	< 10	< 100	< 100
COCCOCc1cc(Nc2ncc(C)c(-c3cnn(CC4(CF)CC4)c3)n2)sn1 [COCCOCC1═NSC(═C1)NC2═NC(═C]	< 1000	< 1000	< 1000	< 1000
Cc1cnc(Nc2ccc(CNC(=O)[C@H](C)N)cc2)nc1-c1cnn(CC2(CF)CC2)c1 [C[C@H](N)C(═O)NCC1═CC═C(NC2═NC]	< 100	< 10	< 100	< 100
Cc1cnc(Nc2ccc(CNC(=O)[C@H](C)NC(=O)OC(C)(C)C)cc2)nc1-c1cnn(CC2(CF)CC2)c1 [C[C@H](NC(═O)OC(C)(C)C)C]	< 100	< 10	< 100	< 100
Cc1cnc(Nc2cn(C)nn2)nc1-c1cnn(CC2(CF)CC2)c1 [C[N]1C═C(NC2═NC(═C(C)C═N2)C3═C[N]]	< 1000	< 100	< 1000	< 1000
Cn1cc(Nc2ncc(Cl)c(-c3cnn(CCC4CC4)c3)n2)cn1 [C[N]1C═C(NC2═NC(═C]	< 100	< 10	< 10	< 100
Cn1ccc(Nc2ncc(Cl)c(-c3cnn(CCC#N)c3)n2)n1 [C[N]1C═CC(═N1)NC2═NC(═C]	< 1000	< 10	< 1000	< 1000
CS(=O)(=O)N(c1ncc(Cl)c(-c2cnn(CCC#N)c2)n1)S(C)(=O)=O [C[S](═O)(═O)N(C1═NC(═C]	> 50000	< 100000	> 50000	> 50000
CS(=O)(=O)N(c1ncc(Cl)c(-c2cnn(CCC#N)c2)n1)S(C)(=O)=O [C[S](═O)(═O)NC1═NC(═C]	< 100000	< 100000	< 100000	< 100000
